≈ marks a conversion by molar mass, not a printed value. Peptide text beside a SMILES is read from it.
Legend:
[1] = system: Escherichia coli strain (ATCC 25922); format: cell-based
Procedure: (§1) Minimal inhibitory concentration (MIC) represents for the lowest concentration of peptide at which the AMP can still kill 90% of the bacteria. All MIC tests for WLK peptide series SEQ ID NO:1-13 were measured against Escherichia coli strain (ATCC 25922) in triplicate. Peptide concentration was determined by UV spectrophotometer (Ultrospec 1100 pro from Amersham Biosciences) at 280 nm with proper extinction coefficient. (Gill S. C. & Von Hippel P. H., Analytical biochemistry 1989, 182(2), 319-326). All of the samples were prepared from a stock solution containing peptides of concentrations 5, 2.5, 1.25, 0.625, 0.313, 0.156 and 0.078 mg/ml. Bacteria culture in the middle of logarithmic growth at a concentration of 5×10^5 colony-formation unit (CFU) and protein solution at the aforementioned concentrations were uniformly mixed in a 96-well culture plate (each well contains 1 microliter protein solution and 99 microliter of bacteria culture). After growing the culture at 37° C. for 16 hours, how bacterial growth was inhibited was measured by Thermo Max (Molecular Devices) at the wavelength of 600 nm. The MIC values were determined by triplicates of the above experiments.

[2] = system: E. coli ATCC 25922; format: cell-based, Escherichia coli; conditions: for Antimicrobial activity (MIC) Experimental values: ATCC 25922; for MIC in MH medium: ATCC 25922, 16 h
Procedure: as §1, with “MIC: Minimal Inhibitory Concentration of AMPs in MH Medium Against E. coli ATCC 25922 Minimal” for “Minimal”

Compound | MIC in LYM medium, NaCl 50 [1] | MIC in LYM medium, NaCl 100 [1] | MIC in LYM medium, NaCl 200 [1] | MIC in LYM medium, NaCl 300 [1] | MIC in LYM medium, control [1] | Antimicrobial activity (MIC) Experimental values [2] | MIC in MH medium [2]
CC(C)C[C@H](NC(=O)[C@H](Cc1c[nH]c2ccccc12)NC(=O)[C@H](CCCCN)NC(=O)[C@H](CC(C)C)NC(=O)[C@H](Cc1c[nH]c2ccccc12)NC(=O)[C@H](CCCCN)NC(=O)[C@H](CC(C)C)NC(=O)[C@H](Cc1c[nH]c2ccccc12)NC(=O)[C@H](CCCCN)NC(=O)[C@@H](N)CCCCN)C(=O)N[C@@H](CCCCN)C(=O)N[C@@H](CCCCN)C(=O)N[C@@H](CCCCN)C(=O)O [SEQ ID NO. 1, KKWLKWLKWLKKK, reference compound] (H-KKWLKWLKWLKKK-OH; N-terminus and C-terminus assumed) | 1.56 µg/mL (≈ 0.86 µM) | 3.13 µg/mL (≈ 1.73 µM) | 6.25 µg/mL (≈ 3.45 µM) | 6.25 µg/mL (≈ 3.45 µM) | 1.56 µg/mL (≈ 0.86 µM) | 3.13 µg/mL | 3.13 µg/mL (≈ 1.73 µM)
CC(C)C[C@H](NC(=O)[C@H](Cc1c[nH]c2ccccc12)NC(=O)[C@H](CCCCN)NC(=O)[C@H](CC(C)C)NC(=O)[C@H](Cc1c[nH]c2ccccc12)NC(=O)[C@H](CCCCN)NC(=O)[C@H](CC(C)C)NC(=O)[C@H](Cc1c[nH]c2ccccc12)NC(=O)[C@@H](N)CCCCN)C(=O)N[C@@H](CCCCN)C(=O)N[C@@H](CCCCN)C(=O)N[C@@H](CCCCN)C(=O)N[C@@H](CCCCN)C(=O)O [SEQ ID NO. 2, KWLKWLKWLKKKK] (H-KWLKWLKWLKKKK-OH; N-terminus and C-terminus assumed) | 1.56 µg/mL (≈ 0.86 µM) | 6.25 µg/mL (≈ 3.45 µM) | 12.5 µg/mL (≈ 6.89 µM) | 12.5 µg/mL (≈ 6.89 µM) | 1.56 µg/mL (≈ 0.86 µM) | 6.25 µg/mL | 6.25 µg/mL (≈ 3.45 µM)
CC(C)C[C@H](NC(=O)[C@H](Cc1c[nH]c2ccccc12)NC(=O)[C@H](CCCCN)NC(=O)[C@H](CC(C)C)NC(=O)[C@H](Cc1c[nH]c2ccccc12)NC(=O)[C@H](CCCCN)NC(=O)[C@H](CC(C)C)NC(=O)[C@@H](N)Cc1c[nH]c2ccccc12)C(=O)N[C@@H](CCCCN)C(=O)N[C@@H](CCCCN)C(=O)N[C@@H](CCCCN)C(=O)N[C@@H](CCCCN)C(=O)N[C@@H](CCCCN)C(=O)O [SEQ ID NO. 3, WLKWLKWLKKKKK] (H-WLKWLKWLKKKKK-OH; N-terminus and C-terminus assumed) | 3.13 µg/mL (≈ 1.73 µM) | 3.13 µg/mL (≈ 1.73 µM) | 12.5 µg/mL (≈ 6.89 µM) | 25 µg/mL (≈ 13.8 µM) | 1.56 µg/mL (≈ 0.86 µM) | 6.25 µg/mL | 6.25 µg/mL (≈ 3.45 µM)
CC(C)C[C@H](NC(=O)[C@H](Cc1c[nH]c2ccccc12)NC(=O)[C@H](CCCCN)NC(=O)[C@H](CC(C)C)NC(=O)[C@H](Cc1c[nH]c2ccccc12)NC(=O)[C@H](CCCCN)NC(=O)[C@@H](N)CC(C)C)C(=O)N[C@@H](CCCCN)C(=O)N[C@@H](CCCCN)C(=O)N[C@@H](CCCCN)C(=O)N[C@@H](CCCCN)C(=O)N[C@@H](CCCCN)C(=O)N[C@@H](Cc1c[nH]c2ccccc12)C(=O)O [SEQ ID NO. 4, LKWLKWLKKKKKW] (H-LKWLKWLKKKKKW-OH; N-terminus and C-terminus assumed) | 3.13 µg/mL (≈ 1.73 µM) | 3.13 µg/mL (≈ 1.73 µM) | 12.5 µg/mL (≈ 6.89 µM) | 50 µg/mL (≈ 27.6 µM) | 1.56 µg/mL (≈ 0.86 µM) | 12.5 µg/mL | 12.5 µg/mL (≈ 6.89 µM)
CC(C)C[C@H](NC(=O)[C@H](Cc1c[nH]c2ccccc12)NC(=O)[C@H](CCCCN)NC(=O)[C@H](CCCCN)NC(=O)[C@H](CCCCN)NC(=O)[C@H](CCCCN)NC(=O)[C@H](CCCCN)NC(=O)[C@H](CC(C)C)NC(=O)[C@H](Cc1c[nH]c2ccccc12)NC(=O)[C@H](CCCCN)NC(=O)[C@H](CC(C)C)NC(=O)[C@H](Cc1c[nH]c2ccccc12)NC(=O)[C@@H](N)CCCCN)C(=O)O [SEQ ID NO. 5, KWLKWLKKKKKWL] (H-KWLKWLKKKKKWL-OH; N-terminus and C-terminus assumed) | 3.13 µg/mL (≈ 1.73 µM) | 12.5 µg/mL (≈ 6.89 µM) | 25 µg/mL (≈ 13.8 µM) | 50 µg/mL (≈ 27.6 µM) | 3.13 µg/mL (≈ 1.73 µM) | 12.5 µg/mL | 12.5 µg/mL (≈ 6.89 µM)
CC(C)C[C@H](NC(=O)[C@H](Cc1c[nH]c2ccccc12)NC(=O)[C@H](CCCCN)NC(=O)[C@H](CCCCN)NC(=O)[C@H](CCCCN)NC(=O)[C@H](CCCCN)NC(=O)[C@H](CCCCN)NC(=O)[C@H](CC(C)C)NC(=O)[C@H](Cc1c[nH]c2ccccc12)NC(=O)[C@H](CCCCN)NC(=O)[C@H](CC(C)C)NC(=O)[C@@H](N)Cc1c[nH]c2ccccc12)C(=O)N[C@@H](CCCCN)C(=O)O [SEQ ID NO. 6, WLKWLKKKKKWLK] (H-WLKWLKKKKKWLK-OH; N-terminus and C-terminus assumed) | 3.13 µg/mL (≈ 1.73 µM) | 6.25 µg/mL (≈ 3.45 µM) | 12.5 µg/mL (≈ 6.89 µM) | 25 µg/mL (≈ 13.8 µM) | 1.56 µg/mL (≈ 0.86 µM) | 6.25 µg/mL | 6.25 µg/mL (≈ 3.45 µM)
CC(C)C[C@H](NC(=O)[C@H](Cc1c[nH]c2ccccc12)NC(=O)[C@H](CCCCN)NC(=O)[C@H](CCCCN)NC(=O)[C@H](CCCCN)NC(=O)[C@H](CCCCN)NC(=O)[C@H](CCCCN)NC(=O)[C@H](CC(C)C)NC(=O)[C@H](Cc1c[nH]c2ccccc12)NC(=O)[C@H](CCCCN)NC(=O)[C@@H](N)CC(C)C)C(=O)N[C@@H](CCCCN)C(=O)N[C@@H](Cc1c[nH]c2ccccc12)C(=O)O [SEQ ID NO. 7, LKWLKKKKKWLKW] (H-LKWLKKKKKWLKW-OH; N-terminus and C-terminus assumed) | 3.13 µg/mL (≈ 1.73 µM) | 6.25 µg/mL (≈ 3.45 µM) | 12.5 µg/mL (≈ 6.89 µM) | 50 µg/mL (≈ 27.6 µM) | 3.13 µg/mL (≈ 1.73 µM) | 12.5 µg/mL | 12.5 µg/mL (≈ 6.89 µM)
CC(C)C[C@H](NC(=O)[C@H](Cc1c[nH]c2ccccc12)NC(=O)[C@H](CCCCN)NC(=O)[C@H](CC(C)C)NC(=O)[C@H](Cc1c[nH]c2ccccc12)NC(=O)[C@H](CCCCN)NC(=O)[C@H](CCCCN)NC(=O)[C@H](CCCCN)NC(=O)[C@H](CCCCN)NC(=O)[C@H](CCCCN)NC(=O)[C@H](CC(C)C)NC(=O)[C@H](Cc1c[nH]c2ccccc12)NC(=O)[C@@H](N)CCCCN)C(=O)O [SEQ ID NO. 8, KWLKKKKKWLKWL] (H-KWLKKKKKWLKWL-OH; N-terminus and C-terminus assumed) | 3.13 µg/mL (≈ 1.73 µM) | 3.13 µg/mL (≈ 1.73 µM) | 6.25 µg/mL (≈ 3.45 µM) | 12.5 µg/mL (≈ 6.89 µM) | 3.13 µg/mL (≈ 1.73 µM) | 6.25 µg/mL | 6.25 µg/mL (≈ 3.45 µM)
CC(C)C[C@H](NC(=O)[C@H](Cc1c[nH]c2ccccc12)NC(=O)[C@H](CCCCN)NC(=O)[C@H](CC(C)C)NC(=O)[C@H](Cc1c[nH]c2ccccc12)NC(=O)[C@H](CCCCN)NC(=O)[C@H](CCCCN)NC(=O)[C@H](CCCCN)NC(=O)[C@H](CCCCN)NC(=O)[C@H](CCCCN)NC(=O)[C@H](CC(C)C)NC(=O)[C@@H](N)Cc1c[nH]c2ccccc12)C(=O)N[C@@H](CCCCN)C(=O)O [SEQ ID NO. 9, WLKKKKKWLKWLK] (H-WLKKKKKWLKWLK-OH; N-terminus and C-terminus assumed) | 3.13 µg/mL (≈ 1.73 µM) | 3.13 µg/mL (≈ 1.73 µM) | 12.5 µg/mL (≈ 6.89 µM) | 50 µg/mL (≈ 27.6 µM) | 3.13 µg/mL (≈ 1.73 µM) | 6.25 µg/mL | 6.25 µg/mL (≈ 3.45 µM)

Source: patent publication US10810329B2, “In silico design of peptides equilibrated in a lipid bilayer with partition free energies indicating probability of antimicrobial activity” (priority 2015, dated 2020)
